Data published in US20230172933A1, “USE OF A COMPOUND OR COMPOSITION COMPRISING AN INHIBITOR OF NLRP1 INFLAMMASOME ACTIVATION FOR THE TREATMENT OF HUMAN AIRWAY INFLAMMATION” (Nanyang Technological University, priority 2020, published 2023).
Entries after “also recorded” stand apart in the source; their conditions may differ. Peptide text beside a SMILES is read from it. * marks the point of attachment. Cbz = O=C(OCc1ccccc1)*

Legend:
human NLRP1 inflammasome = test: HRV14-3Cpro-induced ASC-GFP speck formation in 293T-ASC-GFP-NLRP1-FLAG reporter cells; type: cell-based; conditions: 293T-ASC-GFP-NLRP1-FLAG cells transfected with HRV14-3Cpro; MLN4924 1 μM, MG132 2.5 μM, Bortezomib 0.5 μM, phenylalanine 1 mM; 24 hours
NLRP1 = NLRP1 self-oligomerization (BN-PAGE) and cleavage fragment (SDS-PAGE/Western blot) in 293T-NLRP1-FLAG cells transfected with HRV14-3Cpro; type: cell-based, human; conditions: for stabilization of the post-cleavage NLRP1 fragment (a.a. 131-1213): 293T-NLRP1-FLAG cells transfected with HRV14-3Cpro, Western blot; for HRV14-3Cpro-induced NLRP1 self-oligomerization: 293T-NLRP1-FLAG cells, BN-PAGE, drugs for 24 hours, MG132 2.5 μM
[1] = system: endogenous NLRP1 inflammasome; test: Endogenous NLRP1 inflammasome in doxycycline-induced Tet-ON HRV14-3Cpro N/TERT keratinocytes; type: cell-based, human; conditions: doxycycline 24 hours; for mature IL-1β secretion upon HRV14-3Cpro induction: Western blot, ELISA
[2] = system: NLRP1 inflammasome in HRV16-infected NHBEs; test: HRV16-induced IL-1β and IL-18 secretion in NHBEs (ELISA); type: cell-based, human; conditions: HRV16 MOI=5, 33° C., 48 hours, pre-treated: MLN4924 1 μM, Bortezomib 1 μM, MCC950 5 μM, Rupintrivir 10 nM
Method: (§1) (A) Expression levels of NLRP1 vs. NLRP3 (RNAseq FKPM) in NHBEs. n=21, independent cultures of pooled NHBEs from healthy donors. (B) Expression of NLRP1 vs. NLRP3 in healthy human nasal biopsy. Puncta: positive staining by RNAscope. Nuclei staining: hematoxylin. (C) Overview of cytokine profiling of by HRV16-infected and Talabostat-treated NHBEs. (D) Cells were inoculated with HRV16 at MOI=5 and cultured at 33° C. for 48 hours. Luminex array was performed on conditioned media after removing cell debris. n=3 independent infections and treatment. Cytokines/chemokines that were induced at least 5 fold (p<0.05, Student's t test, lognormal values) are represented by square boxes. […] NHBEs were pretreated with MCC950 (5 μM) or Rupintrivir (10 nM) before HRV16 inoculation or Talabostat (2 μM) treatment. […] (G) Overview of apical HRV infection 3D human bronchial epithelial cultures. (H) Alcian blue (AB)/periodic acid-Schiff (PAS) staining of HRV16-infected (MOI=3) and Talabostat (2 μM)-treated 3D human bronchial epithelial cultures. (1) IL-18 level in apical or basal media 48 hours post-infection or Talabostat treatment. **P<0.01, ***P<0.001, ****P<0.0001 (Two-way ANOVA). n=3 independent infected/treated cultures. (J) Secretion of cleaved IL-1β and IL-18 and ASC oligomerization in HRV16-infected primary NHBEs. Cells were inoculated with HRV16 (MOI=5) or treated with Talabostat (2 μM) for 48 hours at 33° C.
(A) Endogenous NLRP1, ASC and caspase-1 are indispensable for HRV16-induced IL-18 secretion in NHBEs. Cas9-control, NLRP1, ASC and CASP1 KO NHBEs were infected with HRV16 as before. Conditioned media were harvested 48 hours post-infection. (B) NLRP1 is genetically required for HRV16-induced IL-18 cleavage and ASC oligomerization. Cas9 control, NLRP1 and ASC KO NHBEs were infected with HRV16 as before. Cleaved IL-18 are marked with arrows. (C) Mutating the NLRP1 cleavage site abrogates HRV16-triggered IL-18 secretion in NHBEs. NLRP1 KO NHBEs were rescued with lentiviral constructs expressing FLAG-tagged NLRP1^WT or NLRP1^Q130A, which carried silent mutations at the PAM sites. The rescued cells were infected with HRV16 or treated with Talabostat. Conditioned media was analyzed by IL-18 ELISA. **P<0.01, ***P<0.001, n=3 replicates from one of two independent infections. (D) Q130A abrogates NLRP1 cleavage, IL-18 maturation and ASC oligomerization in NHBEs. NLRP1 KO or NLRP1^WT- or NLRP1^Q130A-rescued cells were infected with HRV16 or treated with Talabostat. Cells were harvested 48 hours post infection. Arrow: NLRP1 cleavage product in lane 8 HRV16. *: Non-specific NLRP1 degradation product that occurs right below the a.a. 131-1213 cleavage fragment. See also FIG. 3E, 5E, 5D. (E) MLN4924 and Bortezomib blocks HRV16-induced IL-18 secretion. NHBEs were pre-treated with MLN4924 (1 μM) or Bortezomib (1 μM) before HRV16 infection or Talabostat treatment. IL-18 levels were measured with ELISA. ****, p<0.0001 (Two-way ANOVA), n=3 independent infections/treatment. (F) MLN4924 and Bortezomib blocks HRV16-induced IL-1β secretion. […] Lysates from HRV16-infected NHBEs in FIGS. 9E-F were analyzed by Western blot 48 hours post HRV16 inoculation.
(§2) The following antibodies were used in this study: c-Myc (Santa Cruz Biotechnology #sc-40), HA tag (Santa Cruz Biotechnology, #sc-805), GAPDH (Santa Cruz Biotechnology, #sc-47724), ASC (Adipogen, #AL-177), CASP1 (Santa Cruz Biotechnology, #sc-622), IL1B (R&D systems, #AF-201), FLAG (SigmaAldrich, #F3165), GFP (Abcam, #ab290), NLRP1 (R&D systems, #AF6788), IL18 (Abcam ab207324) and VP2 (QED Bioscience, #18758). HRV16-3Cpro was detected by rabbit serum, a kind gift from Dr. Ann Palmenberg and Dr. James Gern (University of Wisconsin). Cytokine and chemokine measurements were carried out with human IL-1B ELISA kit (BD, #557953), human IL-18 ELISA kit (MBL Bioscience, #7620) and Immune Monitoring 65-Plex Human ProcartaPlex™ Panel (ThermoFisher EPX650-10065-901). […]

[3] = system: NLRP1 inflammasome in Talabostat-treated NHBEs; test: Talabostat-induced IL-1β and IL-18 secretion in NHBEs (ELISA); type: cell-based, human; conditions: Talabostat 2 μM, pre-treated: MLN4924 1 μM, MCC950 5 μM, Rupintrivir 10 nM
Method: as §1
(A) Endogenous NLRP1, ASC and caspase-1 are indispensable for HRV16-induced IL-18 secretion in NHBEs. Cas9-control, NLRP1, ASC and CASP1 KO NHBEs were infected with HRV16 as before. Conditioned media were harvested 48 hours post-infection. (B) NLRP1 is genetically required for HRV16-induced IL-18 cleavage and ASC oligomerization. Cas9 control, NLRP1 and ASC KO NHBEs were infected with HRV16 as before. Cleaved IL-18 are marked with arrows. […] Conditioned media was analyzed by IL-18 ELISA. **P<0.01, ***P<0.001, n=3 replicates from one of two independent infections. […] IL-18 levels were measured with ELISA. ****, p<0.0001 (Two-way ANOVA), n=3 independent infections/treatment. […] Lysates from HRV16-infected NHBEs in FIGS. 9E-F were analyzed by Western blot 48 hours post HRV16 inoculation.
as §2, with “Wisconsin).” for “Wisconsin). Cytokine and chemokine measurements were carried out with human IL-1B ELISA kit (BD, #557953), human IL-18 ELISA kit (MBL Bioscience, #7620) and Immune Monitoring 65-Plex Human ProcartaPlex™ Panel (ThermoFisher EPX650-10065-901).”

[4] = system: NLRP1 cleavage by HRV16 3Cpro; test: NLRP1 cleavage in HRV16-infected HeLa-Ohio-NLRP1-HA cells; type: cell-based, human; conditions: HRV16 MOI=1
Method: (A) HRV16 infection causes NLRP1 cleavage in HeLa-Ohio-NLRP1-HA cells. MOI=1. (B) Q130A abrogates HRV16-induced NLRP1 cleavage and ASC-GFP oligomerization. HeLa-Ohio-ASC-GFP-NLRP1WT or NLRP1^Q130A cells were infected with HRV16 at MOI=1 at 33° C. Cell pellets were harvested 48 hours post infection. (C) The effect of HRV16 infection on ASC-GFP speck formation in HeLa-Ohio-ASC-GFP cells expressing wild-type NLRP1 or NLRP1^Q130A. ***P<0.001 (Two-way ANOVA). n=3 replicates from one of two independent infections, >100 cells per condition. (D) Representative images of ASC-GFP specks in HeLa-Ohio-ASC-GFP cells expressing wild-type NLRP1 or NLRP1^Q130A. Arrows: ASC-GFP specks. Note that in this cell line the ASC-GFP specks appear less compact, even in Talabostat-treated positive control cells. […]
The effect of live HRV infection in disease-relevant human epithelial cell types was then examined. In HeLa-Ohio cells overexpressing NLRP1-HA, robust HRV16 viral replication was achieved 16 hours post inoculation (MOI=1) as detected by the accumulation of the viral capsid protein VP2 (FIG. 8A, lanes 4, 5, 10 and 11). […] Using HeLa-Ohio cells that additionally expressed ASC-GFP, we next tested whether HRV16 infection could lead to NLRP1 inflammasome complex assembly. […]

| SMILES | HRV14-3Cpro-induced ASC-GFP speck formation (human NLRP1 inflammasome) | stabilization of the post-cleavage NLRP1 fragment (a.a. 131-1213) (NLRP1) | ASC oligomerization upon HRV14-3Cpro induction [1] | mature IL-1β secretion upon HRV14-3Cpro induction [1] | HRV16-induced IL-1β secretion [2] | HRV16-induced IL-18 secretion [2] | HRV16-induced IL-1β secretion ([2]; listed as bortezomib) | HRV16-induced IL-18 secretion ([2]; listed as bortezomib) | HRV14-3Cpro-induced NLRP1 self-oligomerization (NLRP1) | Talabostat-induced IL-1β secretion [3] | Talabostat-induced IL-18 secretion [3] | NLRP1 cleavage [4] |
| --- | --- | --- | --- | --- | --- | --- | --- | --- | --- | --- | --- | --- |
| CC(C)C[C@H](NC(=O)[C@H](Cc1ccccc1)NC(=O)c1cnccn1)B(O)O [Bortezomib, [(1R)-3-methyl-1-[[(2S)-3-phenyl-2-(pyrazine-2-carbonylamino)propanoyl]amino]butyl]boronic acid] | blocked | to similar degrees | completely blocked | completely blocked | blocks | blocks | completely blocked | completely blocked |  |  |  |  |
| CC(C)C[C@@H](C=O)NC(=O)[C@H](CC(C)C)NC(=O)[C@H](CC(C)C)NC(=O)OCc1ccccc1 [MG132, benzyl N-[(2S)-4-methyl-1-[[(2S)-4-methyl-1-[[(2S)-4-methyl-1-oxopentan-2-yl]amino]-1-oxopentan-2-yl]amino]-1-oxopentan-2-yl]carbamate] (Cbz-Leu-Leu-Leu-aldehyde) | significantly blocked | to similar degrees | completely abrogated | completely abrogated |  |  |  |  | significantly blocked |  |  |  |
| N[C@@H](Cc1ccccc1)C(=O)O [phenylalanine] | had no effect |  |  |  |  |  |  |  | had no effect |  |  |  |
| CC(C)(O)c1coc(S(=O)(=O)NC(=O)Nc2c3c(cc4c2CCC4)CCC3)c1 [MCC950] |  |  |  |  | neither IL-1β nor IL-18 secretion was affected; also recorded: did not affect | neither IL-1β nor IL-18 secretion was affected |  |  |  | neither IL-1β nor IL-18 secretion was affected | neither IL-1β nor IL-18 secretion was affected |  |
| CCOC(=O)/C=C/[C@H](C[C@@H]1CCNC1=O)NC(=O)[C@@H](CC(=O)[C@@H](NC(=O)c1cc(C)on1)C(C)C)Cc1ccc(F)cc1 [Rupintrivir] |  |  |  |  | completely abrogated | completely abrogated |  |  |  |  |  | completely abrogated |
